Laboratory results: ChEMBL document CHEMBL1129562, “Non-peptide cholecystokinin-B/gastrin receptor antagonists based on bicyclic, heteroaromatic skeletons” (J Med Chem, 1996)
pKi: −log10 of the molar value.

How the values were obtained:
[1] = target: T1, Cholecystokinin receptor type A (Cavia porcellus, UniProt Q63931); assay: In vitro inhibitory activity against Cholecystokinin type A receptor using [125I]BH-CCK-8S as radioligand in guinea pig pancreatic cells
T1 sequence (Q63931 whole entry): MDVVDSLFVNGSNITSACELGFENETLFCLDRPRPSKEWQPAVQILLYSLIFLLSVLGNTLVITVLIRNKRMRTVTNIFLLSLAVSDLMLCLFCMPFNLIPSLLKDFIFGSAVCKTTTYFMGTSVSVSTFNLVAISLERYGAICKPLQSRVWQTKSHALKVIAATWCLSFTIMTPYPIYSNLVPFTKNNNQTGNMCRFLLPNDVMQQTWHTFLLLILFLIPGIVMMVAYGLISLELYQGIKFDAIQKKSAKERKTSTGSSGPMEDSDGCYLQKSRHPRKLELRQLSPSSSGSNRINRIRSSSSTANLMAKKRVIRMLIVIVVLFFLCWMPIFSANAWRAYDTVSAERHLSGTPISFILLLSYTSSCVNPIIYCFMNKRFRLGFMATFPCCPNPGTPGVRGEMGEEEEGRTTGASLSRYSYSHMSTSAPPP

[2] = target: T2, Gastrin/cholecystokinin type B receptor (Mus musculus, UniProt P56481); assay: In vitro inhibitory activity against Cholecystokinin type B receptor using [125I]BH-CCK-8S as radioligand in mouse cortical membranes; type: cell membranes
T2 sequence (P56481 whole entry): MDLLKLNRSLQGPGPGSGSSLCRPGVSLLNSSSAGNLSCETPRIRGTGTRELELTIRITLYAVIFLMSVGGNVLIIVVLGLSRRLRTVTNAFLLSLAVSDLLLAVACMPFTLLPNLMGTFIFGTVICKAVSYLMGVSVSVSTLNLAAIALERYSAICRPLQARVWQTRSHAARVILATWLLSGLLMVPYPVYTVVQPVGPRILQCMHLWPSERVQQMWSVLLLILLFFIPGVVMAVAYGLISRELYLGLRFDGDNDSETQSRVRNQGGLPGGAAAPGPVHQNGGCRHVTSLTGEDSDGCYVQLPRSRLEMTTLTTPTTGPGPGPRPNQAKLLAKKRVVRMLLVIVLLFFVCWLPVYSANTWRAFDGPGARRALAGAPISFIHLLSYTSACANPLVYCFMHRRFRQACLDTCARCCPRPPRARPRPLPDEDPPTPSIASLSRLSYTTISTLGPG

[3] = system: Canis familiaris; assay: Intravenous activity against CCKB/Gastrin antagonist in gastric fistula dog at dose 0.1 uM/kg (in vivo); type: functional, Canis lupus familiaris, Stomach
[4] = target: T3, Gastrin/cholecystokinin type B receptor (Rattus norvegicus) (UniProt P30553); assay: Intravenous activity against Cholecystokinin type B receptor in Gosh and Schild rat at a dsoe of 0.025 umol/kg (in vivo); type: functional, organism-based
T3 sequence (whole entry): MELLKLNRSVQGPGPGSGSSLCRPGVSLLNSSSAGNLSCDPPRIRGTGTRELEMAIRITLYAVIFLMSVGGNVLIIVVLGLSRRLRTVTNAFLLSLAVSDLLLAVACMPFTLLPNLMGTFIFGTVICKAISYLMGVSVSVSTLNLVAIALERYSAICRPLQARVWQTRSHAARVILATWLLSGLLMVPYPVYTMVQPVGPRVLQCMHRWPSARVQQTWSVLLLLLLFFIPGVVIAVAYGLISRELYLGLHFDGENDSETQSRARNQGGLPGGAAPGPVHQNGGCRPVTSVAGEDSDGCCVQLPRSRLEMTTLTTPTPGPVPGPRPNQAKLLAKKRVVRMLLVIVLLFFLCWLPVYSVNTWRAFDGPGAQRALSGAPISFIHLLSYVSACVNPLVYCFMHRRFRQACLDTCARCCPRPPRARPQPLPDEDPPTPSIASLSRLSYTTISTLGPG

SMILES	pKi [1]	pKi [2]	inhibition [4] [%]	Inhibition [3] [%]
O=C(NCC12CC3CC(CC(C3)C1)C2)C1C2c3ccccc3C(c3ccccc32)C1C(=O)N1CCC[C@@H]1C(=O)O (stereo partly drawn)	5.09	6.05		
O=C(O)C1C2c3ccccc3C(c3ccccc32)C1C(=O)NCC12CC3CC(CC(C3)C1)C2 (stereo not drawn)	5.08	6.27		
O=C(NCC12CC3CC(CC(C3)C1)C2)c1cc2ccccc2cc1C(=O)N1CCC[C@@H]1C(=O)O	5.45	6.47		
O=C(O)c1cc(NC(=O)[C@H](Cc2ccccc2)NC(=O)c2cc3ccccc3cc2C(=O)NCC23CC4CC(CC(C4)C2)C3)cc(C(=O)O)c1	6.07	7.88		
O=C(O)c1cc2ccccc2cc1C(=O)NCC12CC3CC(CC(C3)C1)C2	4.93	5.54		
O=C(O)c1cc(NC(=O)[C@H](Cc2ccccc2F)NC(=O)c2cc3cc[nH]c3cc2C(=O)NCC23CC4CC(CC(C4)C2)C3)cc(C(=O)O)c1	5.48	9.13		
O=C(O)c1cc(NC(=O)[C@H](Cc2ccccc2F)NC(=O)c2cc3[nH]cnc3cc2C(=O)NCC2CCCCCC2)cc(C(=O)O)c1	5.13	8.12		
O=C(O)c1cc(NC(=O)[C@H](Cc2ccccc2)NC(=O)c2cc3cc[nH]c3cc2C(=O)NCC2CCCCCC2)cc(C(=O)O)c1	5.50	7.82		
O=C(O)c1cc(NC(=O)[C@H](Cc2ccccc2)NC(=O)c2cc3ccsc3cc2C(=O)NCC23CC4CC(CC(C4)C2)C3)cc(C(=O)O)c1	5.65	8.91		
O=C(O)c1cc(NC(=O)[C@H](Cc2ccccc2)NC(=O)c2cc3ccoc3cc2C(=O)NCC23CC4CC(CC(C4)C2)C3)cc(C(=O)O)c1	5.42	8.27		

Further lines, with some results ahead:

pKi [1]	pKi [2]	inhibition [4] [%]	SMILES	Inhibition [3] [%]
5.59	8.35		O=C(O)c1cc(NC(=O)[C@H](Cc2ccccc2F)NC(=O)c2cc3[nH]cnc3cc2C(=O)NCC23CC4CC(CC(C4)C2)C3)cc(C(=O)O)c1	
5.47	7.87		O=C(O)c1cc(NC(=O)[C@H](Cc2ccccc2)NC(=O)c2cc3[nH]ccc3cc2C(=O)NCC23CC4CC(CC(C4)C2)C3)cc(C(=O)O)c1	
5.44	8.96	97	O=C(O)c1cc(NC(=O)[C@H](Cc2ccccc2)NC(=O)c2cc3cc[nH]c3cc2C(=O)NCC23CC4CC(CC(C4)C2)C3)cc(C(=O)O)c1	79
5.55			O=C(O)c1cc(NC(=O)[C@H](Cc2ccc(O)cc2)NC(=O)c2cc3[nH]cnc3cc2C(=O)NCC23CC4CC(CC(C4)C2)C3)cc(C(=O)O)c1	
6.04	8.41		O=C(NCC1CCCCCC1)c1cc2nc[nH]c2cc1C(=O)N[C@@H](Cc1ccccc1F)C(=O)Nc1cc(-c2nn[nH]n2)cc(-c2nn[nH]n2)c1	
5.89	8.92		O=C(NCC12CC3CC(CC(C3)C1)C2)c1cc2[nH]ccc2cc1C(=O)N[C@@H](Cc1ccccc1)C(=O)Nc1cc(-c2nn[nH]n2)cc(-c2nn[nH]n2)c1	
6.05	8.39		O=C(NCC12CC3CC(CC(C3)C1)C2)c1cc2nc[nH]c2cc1C(=O)N[C@@H](Cc1ccccc1)C(=O)Nc1cc(-c2nn[nH]n2)cc(-c2nn[nH]n2)c1	
5.83	8.28	61	O=C(O)c1cc(NC(=O)[C@H](Cc2ccccc2)NC(=O)c2cc3[nH]cnc3cc2C(=O)NCC23CC4CC(CC(C4)C2)C3)cc(C(=O)O)c1	
